Assay [1] addresses Human LDHA (Homo sapiens (Human), UniProt P00338). Briefly: human LDHA primary biochemical assay. Conditions: biochemical LDHA inhibitory activity, assay of Example 1; activity level classes defined in nM. A digest of the protocol: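 Human LDHA at 2 nM with 0.06 mM NADH and 0.2 mM sodium pyruvate in 200 mM Tris HCl pH 7.4, 100 μM EDTA, 0.01% TWEEN-20 (final). NADH consumption coupled to resazurin/diaphorase (0.037 mM; 0.133 mg/mL); inhibition read by fluorescence.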

Assay [2] relates to MiaPaCa2 cells. The assay can be described thus: cell-based HT lactate assay by colorimetric/fluorometric detection (cellular inhibition of lactate production). As for the experimental part: This example describes a cell-based metabolite assay by colorimetric/fluorometric detection employed in the characterization of a compound of formula (I) in an embodiment of the invention.
Cell-based HT Lactate assay is a miniaturized Biovision Lactate Colorimetric/Fluorometric Assay Kit (Cat #K607-100). The assay is roughly a 3.5 hour assay run in a 1536 plate format. Cell number optimization should be run for each cell line to achieve an optimal number in which lactate production equals roughly 90% of the standard curve range. Cell number per well optimization has been performed with the following cell lines: MiaPaCa2—500 cells/well, SNU398—500 cells/well, and P493—500 cells/well.

The mark [3] stands for this setting: Homo sapiens, MIA PaCa-2, assay of Example 6.

Bounds are passed on as bounds.

In the case of `NS(=O)(=O)c1ccc(Cc2c(-c3ccc(F)c(C4=CCC5(CC4)CC5)c3)nn(-c3nc(C(=O)O)cs3)c2CC2CC2)cc1F` [Compound 108, 2-(5-(cyclopropylmethyl)-3-(4-fluoro-3-(spiro[2.5]oct-5-en-6-yl)phenyl)-4-(3-fluoro-4-sulfamoylbenzyl)-1H-pyrazol-1-yl)thiazole-4-carboxylic acid], the IC50 (commonly the point on the concentration scale where inhibition reaches its midpoint) in assay [1] was less than 100 nM; in assay [2] (setting [3]) it was less than 1000 nM.
For the molecule `NS(=O)(=O)c1ccc(Cc2c(-c3ccc(F)c(C4=CCC(F)(F)CC4)c3)nn(-c3nc(C(=O)O)cs3)c2CC2CC2)cc1F` [Compound 107, 2-(5-(cyclopropylmethyl)-4-(3-fluoro-4-sulfamoylbenzyl)-3-(4′,4′,6-trifluoro-2′,3′,4′,5′-tetrahydro-[1,1′-biphenyl]-3-yl)-1H-pyrazol-1-yl)thiazole-4-carboxylic acid], the IC50 in assay [1] was less than 100 nM; in assay [2] (setting [3]) it was less than 1000 nM.
For `NS(=O)(=O)c1ccc(Cc2c(-c3ccc(F)c(C4=Cc5ccccc5C4)c3)nn(-c3nc(C(=O)O)cs3)c2CC2CC2)cc1F` [Compound 105, 2-(5-(cyclopropylmethyl)-3-(4-fluoro-3-(1H-inden-2-yl)phenyl)-4-(3-fluoro-4-sulfamoylbenzyl)-1H-pyrazol-1-yl)thiazole-4-carboxylic acid], in that order: less than 100 nM and less than 1000 nM.
The matching figures for `COc1ccc(-c2cc(-c3nn(-c4nc(C(=O)O)cs4)c(CC4CC4)c3Cc3ccc(S(N)(=O)=O)c(F)c3)ccc2F)cc1C` [Compound 150, 2-(5-(cyclopropylmethyl)-3-(6-fluoro-4′-methoxy-3′-methyl-[1,1′-biphenyl]-3-yl)-4-(3-fluoro-4-sulfamoylbenzyl)-1H-pyrazol-1-yl)thiazole-4-carboxylic acid]: less than 100 nM and less than 1000 nM.
Regarding `Cc1ccc(C2CC(c3cccc(-c4nn(-c5nc(C(=O)O)cs5)c(CC5CC5)c4Cc4ccc(S(N)(=O)=O)c(F)c4)c3)C2)s1` (stereo not drawn) [Compound 133, 2-(5-(cyclopropylmethyl)-4-(3-fluoro-4-sulfamoylbenzyl)-3-(3-(3-(5-methylthiophen-2-yl)cyclobutyl)phenyl)-1H-pyrazol-1-yl)thiazole-4-carboxylic acid], the IC50 is less than 100 nM in assay [1] and less than 1000 nM in assay [2] (assay of Example 6).
`NS(=O)(=O)c1ccc(Cc2c(-c3ccc(F)c(-c4cc(Cl)cc(Cl)c4)c3)nn(-c3nc(C(=O)O)cs3)c2CC2CC2)cc1F` [Compound 157, 2-(5-(cyclopropylmethyl)-3-(3′,5′-dichloro-6-fluoro-[1,1′-biphenyl]-3-yl)-4-(3-fluoro-4-sulfamoylbenzyl)-1H-pyrazol-1-yl)thiazole-4-carboxylic acid]: the IC50 in assay [1] was 100 to 1000 nM; in assay [2] (setting [3]), less than 1000 nM.
With `COc1cc(OC)cc(-c2cc(-c3nn(-c4nc(C(=O)O)cs4)c(CC4CC4)c3Cc3ccc(S(N)(=O)=O)c(F)c3)ccc2F)c1` [Compound 153, 2-(5-(cyclopropylmethyl)-3-(6-fluoro-3′,5′-dimethoxy-[1,1′-biphenyl]-3-yl)-4-(3-fluoro-4-sulfamoylbenzyl)-1H-pyrazol-1-yl)thiazole-4-carboxylic acid], the values for the IC50 in assay [1] and in assay [2] (setting [3]) were less than 100 nM and less than 1000 nM, respectively.
For the molecule `Cc1ccc(C#Cc2cccc(-c3nn(-c4nc(C(=O)O)cs4)c(CC4CC4)c3Cc3ccc(S(N)(=O)=O)c(F)c3)c2)s1` [Compound 112, 2-(5-(cyclopropylmethyl)-4-(3-fluoro-4-sulfamoylbenzyl)-3-(3-((5-methylthiophen-2-yl)ethynyl)phenyl)-1H-pyrazol-1-yl)thiazole-4-carboxylic acid], the values for the IC50 in assay [1] and in assay [2] (setting [3]) were less than 100 nM and less than 1000 nM, respectively.
For `COC1CC=C(c2cc(-c3nn(-c4nc(C(=O)O)cs4)c(CC4CC4)c3Cc3ccc(S(N)(=O)=O)c(F)c3)ccc2F)CC1` (stereo not drawn) [Compound 104, 2-(5-(cyclopropylmethyl)-3-(6-fluoro-4′-methoxy-2′,3′,4′,5′-tetrahydro-[1,1′-biphenyl]-3-yl)-4-(3-fluoro-4-sulfamoylbenzyl)-1H-pyrazol-1-yl) thiazole-4-carboxylic acid], in that order: less than 100 nM and less than 1000 nM.
